Assay results taken from patent publication US20090042773A1, “P13 kinase gamma inhibitors for the treatment of anaemia” (priority 2004, published 2009).

Key:
[1] = biological target: Human recombinant GST-PI3Kα (Homo sapiens, UniProt P42336)
[2] = biological target: Human recombinant GST-PI3Kγ (Homo sapiens, UniProt P48736)
[3] = biological target: T1, Human recombinant GST-PI3Kδ (Homo sapiens, UniProt O00329)
T1 sequence (O00329 1-1044): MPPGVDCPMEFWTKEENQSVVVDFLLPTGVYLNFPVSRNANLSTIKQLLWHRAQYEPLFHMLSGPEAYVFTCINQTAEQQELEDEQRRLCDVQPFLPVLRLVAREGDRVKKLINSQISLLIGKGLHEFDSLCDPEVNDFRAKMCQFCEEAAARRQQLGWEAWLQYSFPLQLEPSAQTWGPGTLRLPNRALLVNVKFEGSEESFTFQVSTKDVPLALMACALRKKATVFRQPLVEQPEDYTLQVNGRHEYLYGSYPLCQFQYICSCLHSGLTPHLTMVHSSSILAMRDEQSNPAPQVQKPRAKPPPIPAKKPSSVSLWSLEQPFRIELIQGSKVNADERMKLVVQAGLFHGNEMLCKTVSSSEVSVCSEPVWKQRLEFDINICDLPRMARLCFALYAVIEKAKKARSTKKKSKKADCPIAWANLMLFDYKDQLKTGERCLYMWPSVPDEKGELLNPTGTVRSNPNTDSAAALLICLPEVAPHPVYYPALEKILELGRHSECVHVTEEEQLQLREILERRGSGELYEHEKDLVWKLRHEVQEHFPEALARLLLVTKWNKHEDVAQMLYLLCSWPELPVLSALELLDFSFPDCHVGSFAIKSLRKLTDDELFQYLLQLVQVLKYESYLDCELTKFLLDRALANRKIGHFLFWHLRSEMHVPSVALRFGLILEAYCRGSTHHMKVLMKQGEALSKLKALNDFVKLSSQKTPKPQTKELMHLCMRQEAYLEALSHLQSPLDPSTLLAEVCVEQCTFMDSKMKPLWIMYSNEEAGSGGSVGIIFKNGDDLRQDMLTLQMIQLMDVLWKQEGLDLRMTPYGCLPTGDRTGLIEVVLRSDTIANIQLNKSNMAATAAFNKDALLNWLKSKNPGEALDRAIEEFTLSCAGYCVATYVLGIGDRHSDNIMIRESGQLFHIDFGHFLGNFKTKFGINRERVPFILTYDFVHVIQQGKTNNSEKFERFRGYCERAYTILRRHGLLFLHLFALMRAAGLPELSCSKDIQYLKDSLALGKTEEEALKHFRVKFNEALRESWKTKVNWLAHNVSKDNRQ

CD34+ progenitor cells = conditions: Myklebust et al., Experimental Hematology 30 (2002), 990; cited from earlier work
[4] = tested on: Mobilized CD34 positive stem cells; assay: EPO induced erythrocyte formation (stem cell culture, colony assay, flow cytometry); type: cell-based
Description: b) EPO Induced Erythrocyte Formation:
Investigation of the effect of PI3K inhibitors on the differentiation of red cell population, but also on the expansion of undifferentiated stem cells. Two different culture systems. A and B, were explored.
Culture System A (Containing No IL-3):
Differentiation of bone-marrow derived stem cells into the red cell line only. Semi-optimal systems in respect of the expansion of colony forming units, because of the lack of IL3 and other early acting growth factors.
The culture conditions are: IMDM-culture medium, 30% pre-selected fetal calf serum, 1% BSA, Glutamine 40 ug/ml iron saturated transferin, 10−6 Mol Mercaptoethanol, 10 ng/ml SCF, 100 U/ml IL6, 7 U Epo.
Culture System B (Containing IL-3):
Colony forming unit assay. […]
Colony forming units and the expression of Glycophorin A (marker) on the cell surface were used as markers for stem cell erythropoesis. Additionally, the presence of the cell surface antigen CD34 was also monitored to assess the differentiation status of the in vitro expanded cell lineage.
Relative expansion rate of GlyA-positive cells: At day 0, the stage of differentiation only few, if any cells, are GlyA positive. […] The expansion rate is calculated as the absolute number of GlyA-positive cells at the time point of interest divided by the absolute number of GlyA-positive cells in the starting material.

[5] = tested on: K562 erythroleukemia cells; conditions: Neri et al., Cellular Signalling 14 (2002) 21; cited from earlier work

Chain of Human recombinant GST-PI3Kγ (P48736 whole entry): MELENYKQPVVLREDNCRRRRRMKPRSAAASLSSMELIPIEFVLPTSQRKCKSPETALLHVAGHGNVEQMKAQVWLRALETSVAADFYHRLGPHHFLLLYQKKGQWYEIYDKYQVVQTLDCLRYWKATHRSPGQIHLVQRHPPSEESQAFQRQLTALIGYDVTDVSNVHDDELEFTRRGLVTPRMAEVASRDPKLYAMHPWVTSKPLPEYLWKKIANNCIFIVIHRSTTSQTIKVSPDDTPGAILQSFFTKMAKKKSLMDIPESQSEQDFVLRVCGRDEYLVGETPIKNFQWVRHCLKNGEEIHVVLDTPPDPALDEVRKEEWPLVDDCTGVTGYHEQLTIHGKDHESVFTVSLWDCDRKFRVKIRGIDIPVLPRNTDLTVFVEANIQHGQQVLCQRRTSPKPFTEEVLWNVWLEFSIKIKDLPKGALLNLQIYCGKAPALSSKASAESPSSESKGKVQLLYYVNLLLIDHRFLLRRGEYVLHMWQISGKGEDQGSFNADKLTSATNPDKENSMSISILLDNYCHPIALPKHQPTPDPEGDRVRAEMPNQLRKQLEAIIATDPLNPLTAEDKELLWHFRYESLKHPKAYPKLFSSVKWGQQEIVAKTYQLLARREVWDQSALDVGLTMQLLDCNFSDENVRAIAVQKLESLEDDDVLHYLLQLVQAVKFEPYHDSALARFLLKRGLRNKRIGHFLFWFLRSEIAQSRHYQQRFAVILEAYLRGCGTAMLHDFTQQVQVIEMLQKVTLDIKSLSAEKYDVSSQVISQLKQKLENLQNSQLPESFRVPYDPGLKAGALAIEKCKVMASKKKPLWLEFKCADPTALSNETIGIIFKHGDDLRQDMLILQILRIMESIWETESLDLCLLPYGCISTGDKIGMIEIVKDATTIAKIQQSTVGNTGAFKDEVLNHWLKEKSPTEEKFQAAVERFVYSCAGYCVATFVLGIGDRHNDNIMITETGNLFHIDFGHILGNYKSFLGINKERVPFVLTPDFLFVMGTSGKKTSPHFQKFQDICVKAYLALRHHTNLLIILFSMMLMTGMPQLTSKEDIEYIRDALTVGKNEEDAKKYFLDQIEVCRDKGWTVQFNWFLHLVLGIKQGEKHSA
Chain of Human recombinant GST-PI3Kα (P42336 whole entry): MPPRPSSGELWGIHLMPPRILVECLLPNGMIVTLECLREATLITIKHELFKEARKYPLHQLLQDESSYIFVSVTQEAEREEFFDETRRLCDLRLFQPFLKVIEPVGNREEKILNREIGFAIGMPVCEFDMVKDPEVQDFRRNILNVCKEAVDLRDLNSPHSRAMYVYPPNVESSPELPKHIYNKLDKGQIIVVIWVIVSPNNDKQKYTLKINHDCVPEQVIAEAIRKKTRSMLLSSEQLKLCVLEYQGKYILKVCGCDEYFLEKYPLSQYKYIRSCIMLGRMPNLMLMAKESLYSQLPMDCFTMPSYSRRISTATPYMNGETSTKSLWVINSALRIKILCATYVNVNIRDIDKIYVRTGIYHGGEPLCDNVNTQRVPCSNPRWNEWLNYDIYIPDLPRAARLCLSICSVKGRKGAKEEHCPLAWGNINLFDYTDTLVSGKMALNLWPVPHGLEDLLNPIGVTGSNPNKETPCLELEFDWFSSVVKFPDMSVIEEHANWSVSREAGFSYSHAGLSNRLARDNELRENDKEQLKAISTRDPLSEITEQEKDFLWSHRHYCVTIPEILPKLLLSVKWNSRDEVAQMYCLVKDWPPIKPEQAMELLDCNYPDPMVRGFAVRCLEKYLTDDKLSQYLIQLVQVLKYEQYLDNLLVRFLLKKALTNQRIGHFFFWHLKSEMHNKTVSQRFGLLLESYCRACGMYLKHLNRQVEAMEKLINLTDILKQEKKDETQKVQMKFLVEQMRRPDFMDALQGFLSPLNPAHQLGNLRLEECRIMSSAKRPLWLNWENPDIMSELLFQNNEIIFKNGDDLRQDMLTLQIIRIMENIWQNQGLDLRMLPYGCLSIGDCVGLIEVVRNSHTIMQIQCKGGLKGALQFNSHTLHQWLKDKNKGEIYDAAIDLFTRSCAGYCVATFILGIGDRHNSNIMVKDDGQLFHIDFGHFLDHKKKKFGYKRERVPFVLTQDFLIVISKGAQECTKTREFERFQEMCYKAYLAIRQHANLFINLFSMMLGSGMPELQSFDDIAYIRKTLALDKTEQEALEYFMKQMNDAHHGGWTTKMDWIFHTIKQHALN

IC50 [1] [nM] | IC50 [2] [nM] | IC50 [3] [nM] | Structure (SMILES) | further results
370 | 35 | 2730 | O=C1NC(=O)C(=Cc2ccc3nonc3c2)S1 [Example 12, 5-Benzo[1,2,5]oxadiazol-5-ylmethylene-thiazolidine-2,4-ione] | –
– | – | – | O=c1cc(N2CCOCC2)oc2c(-c3ccccc3)cccc12 [LY294002] | effect on EPO induced erythropoiesis from CD34+ progenitor cells (CD34+ progenitor cells): inhibit EPO induced erythropoiesis
1200 | 290 | – | O=C1NC(=O)C(=Cc2ccc3cc(F)oc3c2)S1 [Example 13, 5-(2-Fluoro-benzofuran-6-ylmethylene)-thiazolidine-2,4-dione] | –
250 | 70 | 1700 | O=C1NC(=O)C(=Cc2ccc3c(c2)OCO3)S1 [Example 1, 5-(1,3-benzodioxol-5-ylmethylene)-1,3-thiazolidine-2,4-dione] | increase of the expansion of nucleated cells over the control ([4]; in 13 days, compound added at day 1): 4 fold; cell proliferation ([4]; same culture, 13 days): not enhanced
450 | 115 | – | O=C1NC(=S)SC1=Cc1ccc2c(c1)OCO2 [Example 2, 5-(1,3-benzodioxol-5-ylmethylene)-2-thioxo-1,3-thiazolidin-4-one] | –
460 | 95 | 10000 | Nc1noc2ccc(C=C3SC(=O)NC3=O)cc12 [Example 11, 5-(3-Amino-benzo[d]isoxazol-5-ylmethylene)thiazolidine-2,4-dione] | –
231 | 21 | 1170 | N#CN=C1NC(=O)C(=Cc2ccc3c(c2)OCO3)S1 [Example 14, 5-Benzo[1,3]dioxol-5-ylmethylene-4-oxo-thiazolidin-2-ylidene-cyanamide] | –
310 | 50 | – | O=C1NC(=O)C(=Cc2ccc3c(c2)OCCO3)S1 [Example 3, 5-(2,3-dihydro-1,4-benzodioxin-6-ylmethylene)-1,3-thiazolidine-2,4-dione] | –
2100 | 590 | – | O=C1NC(=O)C(=Cc2ccc3c(c2)NCCO3)S1 [Example 10, 5-(3,4-Dihydro-2H-benzo[1,4]oxazin-6-ylmethylene)-thiazolidine-2,4-dione] | –
170 | 30 | – | CN1C(=O)COc2ccc(C=C3SC(=O)NC3=O)cc21 [Example 6, 5-[(4-methyl-3-oxo-3,4-dihydro-2H-1,4-benzoxazin-6-yl)methylene]-1,3-thiazolidine-2,4-dione] | –
32 | 8 | 2480 | O=C(O)C=Cc1coc2ccc(C=C3SC(=O)NC3=O)cc12 [Example 9, 3-[5-(2,4-Dioxo-thiazolidin-5-ylidenemethyl)benzofuran-3-yl]-acrylic acid] | –
– | 710 | – | N=C1NC(=O)C(=Cc2ccc3c(c2)OCO3)S1 [Example 7, 5-(1,3-benzodioxol-5-ylmethylene)-2-imino-1,3-thiazolidin-4-one] | –
1370 | 316 | 4870 | O=C1NC(=O)C(=Cc2ccc3c(c2)C(=O)c2ccccc2C3=O)S1 [Example 4, 5-[(9,10-dioxo-9,10-dihydroanthracen-2-yl)methylene]-1,3-thiazolidine-2,4-dione] | –
135 | 30 | 1970 | Cc1coc2ccc(C=C3SC(=O)NC3=O)cc12 [Example 8, 5-(3-Methyl-benzofuran-5-ylmethylene)-thiazolidine-2,4-dione] | –
– | – | – | COC[C@H]1OC(=O)c2coc3c2[C@@]1(C)C1=C(C3=O)[C@@H]2CCC(=O)[C@@]2(C)C[C@H]1OC(C)=O [Wortmannin, wortmannin] | effect on EPO induced erythroid differentiation of K562 cells [5]: prevents K562 erythroleukemia cells from EPO induced erythroid differentiation
